Data from patent publication US20160296511A1, “LAQUINIMOD FOR REDUCING THALAMIC DAMAGE IN MULTIPLE SCLEROSIS” (Teva Pharmaceutical Industries, Ltd., priority 2012, published 2016).
“Also recorded” adds a separate entry of the source.

Key:
subjects with RRMS [1] = assay: ALLEGRO sub-study: MT MRI, magnetization transfer ratio (MTR) of NABT, WM, GM and T2 lesions; assay type: in vivo, human; conditions: for Average MTR of T2 lesions, LS mean (SE) change / GM MTR, LS mean (SE) change / NABT MTR, LS mean (SE) change / WM MTR, LS mean (SE) change: 0.6 mg; for Average MTR of T2 lesions, treatment difference (95% CI) / GM MTR, treatment difference (95% CI) / NABT MTR, treatment difference (95% CI) / WM MTR, treatment difference (95% CI): laquinimod 0.6 mg vs placebo
Description: • 1. Frequent MRI (selected countries and sites only): The cumulative number of T1-Gd enhancing lesions taken from scans obtained at months 0, 3, 6, 12, and 24, and in case the study is be extended, 30. Additional MRIs for the ancillary study are performed at months 3 and 6. • 2. Magnetization Transfer (MT) (selected countries and sites only): the change from baseline to month 12 and 24/30 months in magnetization transfer MRI. MT was assessed at months 0 (baseline), 12 and 24 (termination/early discontinuation). In case of the 6 months extended study, the last MT was performed at month 30 (termination/early discontinuation of the extended study) instead of month 24. • 3. Proton MR Spectroscopy (^1H-MRS) (selected countries and sites only): Change from baseline to 24/30 in ^1H-MRS metabolites. ^1H-MRS was assessed at months 0 (baseline), and 24 (termination/early discontinuation). In case of the 6 months extended study, the last ^1H-MRS was performed at month 30 (termination/early discontinuation of the extended study) instead of month 24. • 4. Pharmacogenetic (PGx) assessment: Blood samples for PGx parameters were collected from all subjects at screening. • 5. Brain atrophy, as defined by the percentage of change from one scan to the subsequent scan in brain volume, in addition to the measurements done in the main study (Frequent MRI Cohort). • 6. Whole blood and serum samples (selected countries and sites only) were collected for evaluation of the immunological response to treatment with laquinimod and further investigation of the potential mechanism of action. Whole blood samples were collected at months: 0, 1, 3, 6, 12 and 24. Serum samples were collected at month: 0, 1, 6, 12 and 24 (even if the study is extended to month 30). • 7. Relationship between PGx and response to laquinimod in terms of clinical, MRI and safety parameters. Patients with valid baseline and month 12, and/or month 24 MT MRI assessments were included in the analysis. Least square (LS) mean changes from baseline MTR in NABT, WM, GM and T2-lesions at months 12 and 24, and between months 12 an 24, were evaluated using a MMRM analysis.

subjects with RRMS [2] = assay: ALLEGRO phase III clinical trial of daily oral laquinimod 0.6 mg in RRMS; assay type: in vivo, human; conditions: laquinimod 0.6 mg daily oral, 24 months
Description: A multinational (24 countries), multicenter (approximately 139 sites), randomized, double-blinded, parallel-group, placebo-controlled clinical trial (“ALLEGRO” or MS-LAQ-301) was conducted to evaluate the efficacy, safety and tolerability of daily oral administration of laquinimod 0.6 mg in subjects with RRMS for a 24 months duration. One thousand one hundred and six (1106) patients were equally randomized to either laquinimod 0.6 mg or placebo and treated in a double-blind manner and baseline characteristics were balanced between groups. The primary endpoint of the study was the number of confirmed relapses during the double-blind treatment period, which corresponds to the annualized relapse rate (ARR—number of relapses divided by total exposure of all patients). Secondary endpoints included disability as measured by Expanded Disability Status Scale (EDSS) changes confirmed at 3 months, and cumulative number of gadolinium enhancing (GdE) and new/enlarging T2 MRI lesions. Double blind treatment phase: 24 months of once-daily oral administration of daily dose of 0.6 mg laquinimod or matching placebo. Eligible subjects were equally randomized 1:1 into one of the following treatment arms: • 1. Laquinimod capsules 0.6 mg: One 0.6 mg laquinimod capsule was administered orally once daily. The 0.6 mg laquinimod capsules contain 0.6 mg of Laquinimod Acid per capsule with meglumine, and were manufactured according to the method disclosed in PCT International Application Publication No. WO/2007/146248, published Dec. 21, 2007 (see, page 10, line 5 to page 11, line 3). • 2. Matching placebo for laquinimod arm: one capsule is administered once daily. The primary endpoint was the number of confirmed relapses during the double-blind study period. […] An event was counted as a relapse if the subject's symptoms were accompanied by observed objective neurological changes consistent with at least one of the following: an increase of at least 0.5 in the EDSS score; an increase of one grade in two or more of the seven functional systems; or an increase of two grades in one functional system. […] Secondary endpoints were disability progression as measured by the EDSS and the MSFC. […] Additional predefined disability endpoints include the proportion of patients without confirmed disability progression at 24 months; confirmed disability progression (defined as change in EDSS scores ≧1.0 points for baseline EDSS 0 to 5.0 or ≧5.5) sustained for six months; the accumulation of physical disability as measured by mean EDSS and the mean change in EDSS from baseline to last observed value (LOV). […]

[3] = test system: subject afflicted by tremor or spasticity; assay: Example 3: oral laquinimod in treating tremor and spasticity; assay type: in vivo
Description: A composition comprising laquinimod as described herein is administered to a subject afflicted by tremor. […] A composition comprising laquinimod as described herein is administered to a subject afflicted by tremor. […] A composition comprising laquinimod as described herein is administered to a subject afflicted by spasticity. […] A composition comprising laquinimod as described herein is administered to a subject afflicted by tremor.

For `CCN(C(=O)c1c(O)c2c(Cl)cccc2n(C)c1=O)c1ccccc1` [Laquinimod], the “Average MTR of T2 lesions, LS mean (SE) change” value (from here on “Average MTR … (SE) change”) (subjects with RRMS [1]; Baseline to Month 12) was 0.39 (0.25), the “GM MTR, LS mean (SE) change” value (subjects with RRMS [1]; Baseline to Month 12) was 0.30 (0.13) and the “NABT MTR, LS mean (SE) change” value (subjects with RRMS [1]; Baseline to Month 12) was 0.31 (0.12). For the same compound, the “WM MTR, LS mean (SE) change” value (subjects with RRMS [1]; Baseline to Month 12) was 0.32 (0.13), the “Average MTR of T2 lesions, treatment difference (95% CI)” value (subjects with RRMS [1]; Baseline to Month 12) was 0.38 (−0.26, 1.01) p = 0.239 and the “GM MTR, treatment difference (95% CI)” value (subjects with RRMS [1]; Baseline to Month 12) was 0.41 (0.08, 0.74) p = 0.014. For the same compound, the “NABT MTR, treatment difference (95% CI)” value (subjects with RRMS [1]; Baseline to Month 12) was 0.40 (0.09, 0.71) p = 0.013, the “WM MTR, treatment difference (95% CI)” value (subjects with RRMS [1]; Baseline to Month 12) was 0.40 (0.09, 0.72) p = 0.013 and the “Average MTR … (SE) change” value (subjects with RRMS [1]; Baseline to Month 24) was 0.46 (0.29). The “GM MTR, LS mean (SE) change” value (subjects with RRMS [1]; Baseline to Month 24) was 0.14 (0.16), the “NABT MTR, LS mean (SE) change” value (subjects with RRMS [1]; Baseline to Month 24) was 0.23 (0.15) and the “WM MTR, LS mean (SE) change” value (subjects with RRMS [1]; Baseline to Month 24) was 0.27 (0.16). The “Average MTR of T2 lesions, treatment difference (95% CI)” value (subjects with RRMS [1]; Baseline to Month 24) was 0.53 (−0.23, 1.28) p = 0.168, the “GM MTR, treatment difference (95% CI)” value (subjects with RRMS [1]; Baseline to Month 24) was 0.47 (0.04, 0.90) p = 0.034 and the “NABT MTR, treatment difference (95% CI)” value (subjects with RRMS [1]; Baseline to Month 24) was 0.50 (0.10, 0.89) p = 0.015. For the same compound, the “WM MTR, treatment difference (95% CI)” value (subjects with RRMS [1]; Baseline to Month 24) was 0.53 (0.13, 0.94) p = 0.011, the “Average MTR … (SE) change” value (subjects with RRMS [1]; Month 12 to Month 24) was 0.07 (0.24) and the “GM MTR, LS mean (SE) change” value (subjects with RRMS [1]; Month 12 to Month 24) was −0.16 (0.15). For the same compound, the “NABT MTR, LS mean (SE) change” value (subjects with RRMS [1]; Month 12 to Month 24) was −0.08 (0.14), the “WM MTR, LS mean (SE) change” value (subjects with RRMS [1]; Month 12 to Month 24) was −0.05 (0.13) and the “Average MTR of T2 lesions, treatment difference (95% CI)” value (subjects with RRMS [1]; Month 12 to Month 24) was 0.15 (−0.51, 0.81) p = 0.651. For the same compound, the “GM MTR, treatment difference (95% CI)” value (subjects with RRMS [1]; Month 12 to Month 24) was 0.06 (−0.37, 0.49) p = 0.787, the “NABT MTR, treatment difference (95% CI)” value (subjects with RRMS [1]; Month 12 to Month 24) was 0.10 (−0.31, 0.50) p = 0.642 and the “WM MTR, treatment difference (95% CI)” value (subjects with RRMS [1]; Month 12 to Month 24) was 0.13 (−0.24, 0.51) p = 0.486. For the same compound, the Annualized relapse rates (subjects with RRMS [2]) was “effectively reduced annualized relapse rates”, the Brain atrophy (subjects with RRMS [2]) was “reduced brain atrophy” and the “Development of new lesions” value (subjects with RRMS [2]) was “reduced the development of new lesions”. The Progression of disability (subjects with RRMS [2]) was “slowed the progression of disability”, the “Spasticity in the subject” value ([3]; subject afflicted by spasticity) was “effective to inhibit spasticity; also recorded: effective to reduce spasticity” and the “Tremor in the subject” value ([3]; subject afflicted by tremor) was “effective to inhibit tremor; also recorded: effective to reduce tremor”.
